Reference: patent US4356188A, “1-Naphthyl-acetic acid derivatives and their therapeutic applications” (Institut de Recherche Scientifique "I.R.S.", priority 1978, dated 1982)
Read-outs that look alike come from different tables or passages of the source.

What was measured:
[1] = Antalgic activity: phenylbenzoquinone-induced writhing (Sigmund, modified); assay type: in vivo, male Ch. River mice; details: Mus musculus, po; mice, p.o., 30 minutes before phenylbenzoquinone; spasms counted fifth to tenth minute; dosages in method 25-50-100 mg/kg; read-out: Antalgic activity ID 50
Method: The method used is that according to Sigmund and co-workers (Soc. Exp. Biol. Med. 1957, 95, 729) as modified by Hendershot & Forsaith (J. Pharm. Exp. Therap. 1959, 125, 237-240) and Lines & Gouret (J. Pharm. (Paris) 1972, 3, 513-515). Intraperitoneal administration of 0.25 ml/20 g, in mice, of a 0.02% phenylbenzoquinone solution in 5% alcohol, produces the development of a pain syndrome which is characterized by writhing movements and by hollow flanks. Treatment of groups of 10 male Ch. River mice (average weight: 20 g) at dosages of 25-50 and 100 mg/kg p.o. (a control group being administered only neutral olive oil; 0.5 ml/20 g) is effected 30 minutes prior to phenylbenzoquinone administration. The ID 50 is calculated as previously indicated, from the percent inhibition of the spasms counted from the fifth to the tenth minute that follow the injection of the algogenic agent.

[2] = Ulcerogenic activity (Robert & Nezamis, modified by Lwoff); parameters: species or system rats of Ch. River strain; details: rat, in vivo
Method: The technique used is that according to Robert & Nezamis (Proc. Soc. Exp. Biol. Med., 1958,99,443-447) as modified by Lwoff (J. Pharmacol. (Paris) 1971, 2, 81-83).
Groups of 20 rats of Ch. River strain (average weight: 130 g) kept on a water diet for the 24 hours prior to the test, are orally administered the test materials, at dosages of 50-100-200-400 and 800 mg/kg. A reference group is administered only neutral olive oil, at a dosage of 1 ml/100 g.
Six hours later, the animals are sacrificed by bulbar trauma, after which their stomachs are cut out, opened along the great curvature and rated according to a scale from 0 to 3, according to the extent of the ulceration.
The ulceration index for each dosage is calculated according to the following formula: [formula]
With this scoring method, a 100% ulceration index is equal to 300. The 50% ulcerogenic dosage (UD 50) is that which corresponds to an index of 150.

in vivo = details: rat, po, read-out: Acute toxicity LD 50
Method: Groups of 5 male CH. River rats, having an average weight of 125 g, kept on a water diet for 18 hours prior to the test, are orally administered the test materials, dissolved in neutral olive oil (1 ml/100 g), at dosages of 250-500-1000 and 2000 mg/kg.
The death rate is recorded 7 days after the administration: the lethal dose 50 (LD 50) is determined according to the method by Litchfield & Wilcoxon.

[3] = Anti-pyretic activity: brewer's yeast-induced fever; assay type: in vivo; details: Rattus norvegicus; rats, oral, 17 hours after brewer's yeast; mean of 5 hourly determinations; dosages in method 25-50-100 mg/kg; read-out: Anti-pyretic activity ID 50
Method: After determination of the rectal temperature, rats are sub-cutaneously administered 1 ml/100 g of a 20% brewer's yeast suspension, and are put on a water diet. 17 hours later, their temperature is again determined. The mean increase of the rectal temperature, under such experimental conditions, is about 1.5° C. The various test materials are then orally administered to groups of 10 rats (average weight: 140 g) at dosages of 25-50 and 100 mg/kg. A fourth group (control) is administered only olive oil (1 ml/100 g). The temperature drop subsequent to the treatment is followed hourly, for a period of time of 5 hours. The mean percent inhibition is calculated by effecting the mean of the 5 determinations, with respect to the value 1.5° C.

[4] = Anti-inflammatory activity: carrageenin-induced plantar edema test (Winter); assay type: in vivo; details: Rattus norvegicus; rats, oral, 1 hour before 1% carrageenin; mean of 7 hourly determinations; dosages in method 25-50-100 mg/kg; read-out: Anti-inflammatory activity ID 50
Method: The test selected is the test of the carrageenin-induced plantar edema, according to Winter (Proc. Soc. Exp. Biol., 1961, 111, 544). […] A fourth group (control) is administered only neutral olive oil (1 ml/100 g). One hour after the treatment, 0.1 ml of a 1% carrageenin suspension is injected in the left plantar aponevrosis. The intensity of the edema is evaluated by immersing the inflamed paw in a mercury plethystometer. The percent inhibition of the edema is calculated from the mean value of the 7 determinations made hourly after carrageenin administration. The dosage which inhibits inflammation by 50% (ID 50) is determined in the same manner as previously described.

With CC(C)Cc1cccc2c(CC(=O)O)cccc12 [Derivative 1, [5-isobutyl-1-naphthyl]acetic acid] the ED50 [1] was 24 mg/kg, the TD50 at 6 h ([2]; po) was > 800 mg/kg and the LD50 at 168 h (in vivo) was 600 mg/kg. It also gave an ED50 [3] of 0.7 mg/kg and an ED50 [4] of 15 mg/kg.
In the case of CC(C)Cc1cccc2c(C(C)C(=O)O)cccc12 (centres unmarked) [Derivative 2, 2-[5-isobutyl-1-naphthyl]propionic acid], the ED50 [1] is reported as 4 mg/kg, the LD50 at 168 h (in vivo) is reported as 130 mg/kg and the ED50 [3] is reported as < 1 mg/kg. It also gave an ED50 [4] of 5 mg/kg.
CC(C)Cc1ccc(C(C)C(=O)O)cc1 (centres unmarked) [ibuprofen, reference compound] gave an ED50 [1] of 9 mg/kg, a TD50 at 6 h ([2]; po) of 220 mg/kg and an ED50 [3] of 12 mg/kg. It also gave an ED50 [4] of 38 mg/kg.
Work on COc1ccc2cc([C@H](C)C(=O)O)ccc2c1 [naproxen, reference compound] yielded an ED50 [1] of 10.6 mg/kg, a TD50 at 6 h ([2]; rats, oral, 6 hours, dose giving ulceration index 150, dosages in method 50-800 mg/kg, read-out: Ulcerogenic activity UD 50) of 43 mg/kg and an ED50 [3] of 4.1 mg/kg. It also gave an ED50 [4] of 3 mg/kg.
